Reference: the supplement of paper PMC11208160

Assay: recombinant barcode read abundance after kanamycin selection (control-corrected) (log10(CPM+1)); higher = more efficient recombination; sequences stand for … in AGTGCAGAGAAAATCGGCCAGTTTTCTCTGCCTGCAGTCCGCATGCCGT…AGATTTATGCAGCGGACTGCCTTTCTCCCAAAGTGATAAACCGGACAGTATCATGGACCGGTTTTCCCGGTAATCCGTATTTGCAAGGTTGGTTTCACT; site = the 11-nt target
How it was run: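 A vector carrying a T7-inducible recombinase and the last 73 bp of the bridge RNA received, by Gibson cloning, oligos encoding a promoter, target, barcode and the first 104 bridge RNA bases under J23119. The pooled constructs entered E. coli together with a donor plasmid by electroporation. Selection used chloramphenicol/ampicillin/kanamycin with 0.1 mM IPTG, with chloramphenicol/ampicillin LB agar as the control, each in two replicates. Recombination efficiency is the averaged, control-corrected counts-per-million of barcodes at recombinant junctions, reported as log10(CPM+1).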
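Note: IS621 recombinase and bridge RNA in Escherichia coli cells.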

Point of comparison: “CCAGAAGCTTGGGTTCTAACCTGTTGCCT (site CCAGAAGCTAG)”, “recombinant barcode read abundance (log10)” value 0.179. Against it:
- CATCTATCTTGGGTTCTAACCTGTTGCCT (site CATCGATCTAG) — within 0.2 log units, 0.353
- CATCTATCTTGGGTTCTAACCTGTTGCCT (site CATCTATCTAG) — higher, 0.624
- CATGACCCTTGGGTTCTAACCTGTTGCCT (site CAAGACCCTAG) — higher, 0.993
- CATGACCCTTGGGTTCTAACCTGTTGCCT (site CACGACCCTAG) — higher, 0.774
- CATGACCCTTGGGTTCTAACCTGTTGCCT (site CAGGACCCTAG) — higher, 0.85
- CATGACCCTTGGGTTCTAACCTGTTGCCT (site CATGACCCTAG) — higher, 1.67
- CATGATACTTGGGTTCTAACCTGTTGCCT (site ATCTTGTCTCC) — within 0.2 log units, 0.0865
- CATGATACTTGGGTTCTAACCTGTTGCCT (site CATGATACTAG) — higher, 0.922
- CATGCCTCTTGGGTTCTAACCTGTTGCCG (site CATGCCTCTCG) — higher, 2.17
- CATGCCTCTTGGGTTCTAACCTGTTGCCG (site GCAAGTCCTAC) — within 0.2 log units, 0.227
- CATGCGACTTGGGTTCTAACCTGTTGCGT (site AGCATCCCTCA) — within 0.2 log units, 0.234
- CATGCGACTTGGGTTCTAACCTGTTGCGT (site CATGCGACTAC) — higher, 0.472
- CATGCTACTTGGGTTCTAACCTGTTGCGT (site CATGCTACTAC) — higher, 0.41
- CATGCTACTTGGGTTCTAACCTGTTGCGT (site GATTCTACTAC) — within 0.2 log units, 0.0988
- CATGTACCTTGGGTTCTAACCTGTTGCCT (site AATGTACCTAG) — within 0.2 log units, 0.0837
- CATGTACCTTGGGTTCTAACCTGTTGCCT (site CATGTACCTAG) — higher, 2.02
- CATGTACCTTGGGTTCTAACCTGTTGCCT (site GATGTACCTAG) — within 0.2 log units, 0.145
- CATGTACCTTGGGTTCTAACCTGTTGCCT (site TATGTACCTAG) — within 0.2 log units, 0.0813
- CATTAGACTTGGGTTCTAACCTGTTGCCT (site AATTAGACTAG) — within 0.2 log units, 0.356
- CATTAGACTTGGGTTCTAACCTGTTGCCT (site CATTAGACTAG) — higher, 0.423
- CATTAGACTTGGGTTCTAACCTGTTGCCT (site GATTAGACTAG) — within 0.2 log units, 0.195
- CATTAGACTTGGGTTCTAACCTGTTGCCT (site TATTAGACTAG) — within 0.2 log units, 0.08
- CATTCAACTTGGGTTCTAACCTGTTGCCT (site CATTCAACTAG) — within 0.2 log units, 0.133
- CATTCAACTTGGGTTCTAACCTGTTGCCT (site CATTCAACTCG) — within 0.2 log units, 0.115
- CATTTCACTTGGGTTCTAACCTGTTGCCT (site CATTTCACTAG) — higher, 0.379
- CATTTCACTTGGGTTCTAACCTGTTGCCT (site GCCCATGCTCC) — within 0.2 log units, 0.0522
- CATTTCCCTTGGGTTCTAACCTGTTGCTT (site CATTTCCCTAA) — within 0.2 log units, 0.122
- CATTTCCCTTGGGTTCTAACCTGTTGCTT (site CATTTCCCTAG) — within 0.2 log units, 0.246
- CATTTCTCTTGGGTTCTAACCTGTTGCCT (site AATTTCTCTAG) — within 0.2 log units, 0.0363
- CATTTCTCTTGGGTTCTAACCTGTTGCCT (site CATTTCTCTAG) — within 0.2 log units, 0.341
- CATTTCTCTTGGGTTCTAACCTGTTGCCT (site GATTTCTCTAG) — within 0.2 log units, 0.116
- CATTTCTCTTGGGTTCTAACCTGTTGCCT (site TATTTCTCTAG) — within 0.2 log units, 0.00749
- CCAAAGACTTGGGTTCTAACCTGTTGCTT (site CCAAAGACTAA) — higher, 0.653
- CCAAAGACTTGGGTTCTAACCTGTTGCTT (site GGGTCACCTCC) — within 0.2 log units, 0
- CCACACTCTTGGGTTCTAACCTGTTGCCT (site CAACACTCTAG) — within 0.2 log units, 0.0891
- CCACACTCTTGGGTTCTAACCTGTTGCCT (site CCACACTCTAG) — higher, 1.27
- CCACACTCTTGGGTTCTAACCTGTTGCCT (site CGACACTCTAG) — within 0.2 log units, 0.0247
- CCACACTCTTGGGTTCTAACCTGTTGCCT (site CTACACTCTAG) — within 0.2 log units, 0.171
- CCACATCCTTGGGTTCTAACCTGTTGCCT (site CCACATCCTAG) — within 0.2 log units, 0.289
- CCACATCCTTGGGTTCTAACCTGTTGCCT (site GCACACCCTAG) — within 0.2 log units, 0.109
- CCACCGTCTTGGGTTCTAACCTGTTGCCT (site CCACAGTCTAG) — within 0.2 log units, 0.171
- CCACCGTCTTGGGTTCTAACCTGTTGCCT (site CCACCGTCTAG) — within 0.2 log units, 0.156
- CCACCGTCTTGGGTTCTAACCTGTTGCCT (site CCACGGTCTAG) — within 0.2 log units, 0.177
- CCACCGTCTTGGGTTCTAACCTGTTGCCT (site CCACTGTCTAG) — within 0.2 log units, 0.175
- CCACGGTCTTGGGTTCTAACCTGTTGCCT (site CCACAGTCTAG) — within 0.2 log units, 0.161
- CCACGGTCTTGGGTTCTAACCTGTTGCCT (site CCACCGTCTAG) — within 0.2 log units, 0.0249
- CCACGGTCTTGGGTTCTAACCTGTTGCCT (site CCACGGTCTAG) — higher, 1.1
- CCACGGTCTTGGGTTCTAACCTGTTGCCT (site CCACTGTCTAG) — within 0.2 log units, 0.033
- CCAGAAGCTTGGGTTCTAACCTGTTGCCT (site CCAGCAGCTAG) — within 0.2 log units, 0.222
- CCAGAAGCTTGGGTTCTAACCTGTTGCCT (site CCAGGAGCTAG) — higher, 0.407
- CCAGAAGCTTGGGTTCTAACCTGTTGCCT (site CCAGTAGCTAG) — within 0.2 log units, 0.0645
- CCAGGACCTTGGGTTCTAACCTGTTGCCT (site CCAGGACCTAG) — higher, 2.2
- CCAGGACCTTGGGTTCTAACCTGTTGCCT (site CGAGGACCTAG) — within 0.2 log units, 0.291
- CCAGGAGCTTGGGTTCTAACCTGTTGCCT (site CCAGAAGCTAG) — within 0.2 log units, 0.338
- CCAGGAGCTTGGGTTCTAACCTGTTGCCT (site CCAGCAGCTAG) — within 0.2 log units, 0.103
- CCAGGAGCTTGGGTTCTAACCTGTTGCCT (site CCAGGAGCTAG) — higher, 0.545
- CCAGGAGCTTGGGTTCTAACCTGTTGCCT (site CCAGTAGCTAG) — within 0.2 log units, 0.109
- CCAGGTACTTGGGTTCTAACCTGTTGCCT (site ACAGGTACTAG) — within 0.2 log units, 0.272
- CCAGGTACTTGGGTTCTAACCTGTTGCCT (site CCAGGTACTAG) — higher, 0.701
- CCAGGTACTTGGGTTCTAACCTGTTGCCT (site GCAGGTACTAG) — within 0.2 log units, 0.117
- CCAGGTACTTGGGTTCTAACCTGTTGCCT (site TCAGGTACTAG) — within 0.2 log units, 0.182
- CCAGGTCCTTGGGTTCTAACCTGTTGCAT (site CCAGGTCCTAC) — within 0.2 log units, 0.111
- CCAGGTCCTTGGGTTCTAACCTGTTGCAT (site CCAGGTCCTAT) — higher, 2.25
- CCAGGTGCTTGGGTTCTAACCTGTTGCGG (site CCAGGTGCTCC) — higher, 1.62
- CCAGGTGCTTGGGTTCTAACCTGTTGCGG (site GGCTTGACTAG) — within 0.2 log units, 0.0921
- CCAGTAACTTGGGTTCTAACCTGTTGCCT (site CCAGTAACTAG) — higher, 0.659
- CCAGTAACTTGGGTTCTAACCTGTTGCCT (site CCAGTCACTAG) — within 0.2 log units, 0.137
- CCAGTAACTTGGGTTCTAACCTGTTGCCT (site CCAGTGACTAG) — within 0.2 log units, 0.082
- CCAGTAACTTGGGTTCTAACCTGTTGCCT (site CCAGTTACTAG) — within 0.2 log units, 0.0883
- CCAGTAGCTTGGGTTCTAACCTGTTGCCT (site CCAGAAGCTAG) — higher, 0.382
- CCAGTAGCTTGGGTTCTAACCTGTTGCCT (site CCAGCAGCTAG) — within 0.2 log units, 0.161
- CCAGTAGCTTGGGTTCTAACCTGTTGCCT (site CCAGGAGCTAG) — within 0.2 log units, 0.193
- CCAGTAGCTTGGGTTCTAACCTGTTGCCT (site CCAGTAGCTAG) — higher, 0.52
- CCAGTCACTTGGGTTCTAACCTGTTGCCT (site CCAGTAACTAG) — within 0.2 log units, 0.377
- CCAGTCACTTGGGTTCTAACCTGTTGCCT (site CCAGTCACTAG) — higher, 1.88
- CCAGTCACTTGGGTTCTAACCTGTTGCCT (site CCAGTGACTAG) — within 0.2 log units, 0.176
- CCAGTCACTTGGGTTCTAACCTGTTGCCT (site CCAGTTACTAG) — within 0.2 log units, 0.19
- CCAGTGACTTGGGTTCTAACCTGTTGCCT (site CCAGTAACTAG) — higher, 0.931
- CCAGTGACTTGGGTTCTAACCTGTTGCCT (site CCAGTCACTAG) — within 0.2 log units, 0.299
- CCAGTGACTTGGGTTCTAACCTGTTGCCT (site CCAGTGACTAG) — higher, 1.38
- CCAGTGACTTGGGTTCTAACCTGTTGCCT (site CCAGTTACTAG) — within 0.2 log units, 0.254
- CCATGGACTTGGGTTCTAACCTGTTGCCT (site CCAAGGACTAG) — within 0.2 log units, 0.202
- CCATGGACTTGGGTTCTAACCTGTTGCCT (site CCACGGACTAG) — higher, 0.516
- CCATGGACTTGGGTTCTAACCTGTTGCCT (site CCAGGGACTAG) — within 0.2 log units, 0.0382
- CCATGGACTTGGGTTCTAACCTGTTGCCT (site CCATGGACTAG) — within 0.2 log units, 0.252
